Measured values from PubChem BioAssay (NCI).
Where “and” joins values, the source holds several entries; their conditions need not be identical. Equal values may be shown once.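 Assay format: 96-well plates, 48-hour exposure. GI50 marks 50% less growth. TGI denotes the concentration required for complete inhibition of growth.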

Test system: MDA-MB-468 breast
Test: DTP human tumour cell line panel, 48 h

Row | SMILES | GI50 | TGI
1 | O=c1c2cc(F)ccc2sc2c(NCCCNCCO)nc3ccccc3c12 | 1090 nM | 2430 nM
2 | C=CCc1cc(Nc2c3ccc(Cl)cc3nc3ccc(OC)cc23)cc(CN(CC)CC)c1O | 546 nM | 3240 nM
3 | Cc1ccncc1C(N)=O | > 100000 nM | > 100000 nM
4 | O=C(Nc1ccccc1OC(=O)c1ccccc1)c1ccccc1 | 5640 nM | > 100000 nM
5 | Oc1cccc2c1NCCC2 | 1830 nM | 8490 nM
6 | Cc1[nH]c(-c2cc(N)ccc2Cl)c2c1C(=O)CCCC2 | 1900 nM | 9460 nM
7 | Nc1n[nH]c2ccc([C@@H]3Nc4cc5c(cc4[C@H]4C6CCC(C6)[C@@H]34)C(=O)NC5)cc12 (stereo partly specified) | 323 nM | > 100000 nM
8 | COc1ccc(/C=C(\C)[N+](=O)[O-])cc1OC | 1480 nM | 3050 nM
9 | COc1ccc(/C=C(/C)[N+](=O)[O-])cc1OC | 1340 nM and 1150 nM | 2770 nM and 2530 nM
10 | CCOC(=O)c1c(NC(=O)c2cccc(C(F)(F)F)c2)sc2c3c(ccc12)OCN(C)C3 | 1520 nM | 2970 nM
11 | COc1cc(C(=O)c2cc(C)c3[nH]c4ccc(O)cc4c3c2C)cc(OC)c1OC | < 15.7 nM | 1060 nM
12 | CC1C=CC(OC(=O)C(C)(O)CCC(O)(C(=O)OC2CC(O)C(C(C)C)CC2(C)O)C(C)C)(C(C)C)CC1 (stereo unspecified) | 360 nM | 1220 nM
13 | c1ccc(N=C2c3ccsc3C(=Nc3ccccc3)c3ccsc32)cc1 | 1780 nM | 3610 nM
14 | CC(C)C[C@H](NC(=O)CCn1ccc2ccccc2c1=O)B(O)O | 1380 nM | 7080 nM
15 | COc1cc2c(cc1F)C(c1ccccc1Cl)=Nc1c(n[nH]c1C)N2 | 342 nM | 3730 nM
16 | CCc1c(C)nc2sc3c(N)ncnc3c2c1C | > 25000 nM | > 25000 nM
17 | O=C(CSc1nnc(-c2ccc(Cl)cc2)n1-c1ccccc1)Nc1ccc(Cl)cc1 | 2830 nM | 8270 nM
18 | FC(F)(F)c1cccc(-c2nn3ncccc3c2-c2ccnc(Nc3ccc4c(c3)OCCO4)n2)c1 | 3970 nM | 17900 nM

Row | SMILES | GI50 | TGI
19 | C[C@@H]1Cc2cc(O)ccc2[C@H]2CC[C@]3(C)/C(=C/COCCN(C)C)CC[C@H]3[C@H]12 (tested in a mixture with another compound) | 1070 nM | 3200 nM
20 | COc1ccc(Nc2ccnc(N3CCN(c4ccnc5cc(Cl)ccc45)CC3)n2)cc1 | 1500 nM | > 100000 nM
21 | CC1c2ccccc2CCN1c1ccc(CO)c(Cl)c1 (stereo unspecified) | 15.1 nM | 39.3 nM
22 | N/C(=N\OC(=O)c1ccccc1)C(Cc1ccccc1)C(=O)NOC(=O)c1ccccc1 (stereo unspecified) | 4100 nM | 17500 nM
23 | Oc1c(-c2cc(C(F)(F)F)[nH]n2)cc(Cl)c(OCc2ccc(Cl)cc2)c1-c1ccc(Cl)c(C(F)(F)F)c1 | 208 nM | 1660 nM
24 | O=C1C(OCCOc2ccccc2)=C(OCCOc2ccccc2)C(=O)c2ccccc21 | 9920 nM | > 100000 nM
25 | COc1ccc2c(-c3ccnc(Nc4cccc(OC(F)(F)F)c4)n3)cnn2n1 | 1260 nM | 4690 nM
26 | COc1cc(-c2nn(-c3cccc(NC(=O)CCN4CCN(Cc5ccccc5)CC4)c3)cc2-c2ccncc2)ccc1Cl | 433 nM | 16200 nM
27 | COc1ccc2c(c1)C(=O)c1c-2c(OCCN(C)C)nc2ccccc12 | 2760 nM | 11300 nM
28 | COc1cccc(Oc2ccccc2NC(=O)CNC(=O)c2cccc3ccccc23)c1 | 331 nM | > 25000 nM
29 | N#CCCNc1nonc1-c1nc2ccccc2n1CC(=O)c1ccc(NC(=O)[C@@H](N)CCCCN)cc1 | 23.6 nM | 
30 | COc1cc(C(=O)Nc2cc(O)c(CC=C(C)C)c(O)c2)cc2c1O[C@]1(C)CC[C@@H](O)C(C)(C)[C@H]1C2 | 648 nM | 32900 nM
31 | O=Nc1c(-c2c(O)[nH]c3ncccc23)[nH]c2ccccc12 | 4120 nM | > 100000 nM
32 | CCN1C(=O)N(CC)C2C1NN=c1s/c(=C\c3ccc(F)cc3)c(=O)n12 (stereo unspecified) | 168 nM | > 100000 nM
33 | COc1ccc(Nc2ccc([N+](=O)[O-])cc2[N+](=O)[O-])cc1CN(CCCl)CCCl | 1990 nM | 5090 nM
34 | O=C(CN1N=C(c2ccc(F)cc2)CCC1=O)Nc1nc2ccccc2s1 | 21100 nM | 85900 nM
35 | CN1CCc2nc3sc(C(N)=O)c(N)c3c(-c3cccs3)c2C1 | 1750 nM | 4860 nM
36 | CN1CCN(CCCCCN=c2cc3c(=O)n(CCCCCN4CCN(C)CC4)c(=O)c4c(NCCCCCN5CCN(C)CC5)cc5c(O)n(CCCCCN6CCN(C)CC6)c(=O)c2c5c4-3)CC1 | 2260 nM | 6310 nM
